The source made the active and inactive calls.
Columns and labels:
[1] = Luminescence Cell-Based Dose Retest to Confirm Inhibitors of Cancer Stem Cells. [Related pubchem assays (depositor defined):AID2717, AID2721]; assay type: functional; settings: Homo sapiens
[2] = biological target: T1, Replicative DNA helicase DnaB (Mycobacterium tuberculosis, UniProt P9WMR3); experiment: DnaB intein splicing inhibitors, dose response, biochemical, cell-free fluorescence (AID 449749); assay type: functional
T1 sequence (P9WMR3 whole entry): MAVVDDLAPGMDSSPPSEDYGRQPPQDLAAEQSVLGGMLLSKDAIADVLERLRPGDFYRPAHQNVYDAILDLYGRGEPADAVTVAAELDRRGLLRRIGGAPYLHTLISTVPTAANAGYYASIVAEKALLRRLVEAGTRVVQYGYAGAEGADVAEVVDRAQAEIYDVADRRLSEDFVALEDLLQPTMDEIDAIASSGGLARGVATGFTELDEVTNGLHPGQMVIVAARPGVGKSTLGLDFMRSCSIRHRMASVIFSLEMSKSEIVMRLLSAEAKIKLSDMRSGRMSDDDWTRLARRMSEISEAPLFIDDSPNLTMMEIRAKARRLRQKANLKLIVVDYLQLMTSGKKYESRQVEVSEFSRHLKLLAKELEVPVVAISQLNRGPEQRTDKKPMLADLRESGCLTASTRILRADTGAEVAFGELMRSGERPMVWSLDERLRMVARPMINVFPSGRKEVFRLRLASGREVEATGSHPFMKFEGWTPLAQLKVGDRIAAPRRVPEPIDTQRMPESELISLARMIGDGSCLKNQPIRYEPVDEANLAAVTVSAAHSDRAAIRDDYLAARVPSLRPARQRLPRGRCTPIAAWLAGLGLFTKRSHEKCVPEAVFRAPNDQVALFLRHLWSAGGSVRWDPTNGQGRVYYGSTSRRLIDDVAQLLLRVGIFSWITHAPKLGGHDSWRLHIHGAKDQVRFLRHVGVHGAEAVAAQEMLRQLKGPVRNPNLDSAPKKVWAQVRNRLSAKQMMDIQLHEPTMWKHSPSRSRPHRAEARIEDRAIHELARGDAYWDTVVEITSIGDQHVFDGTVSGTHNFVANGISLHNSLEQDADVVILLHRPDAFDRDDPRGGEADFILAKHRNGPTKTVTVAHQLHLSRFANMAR

[3] = biological target: T2, Protein RecA (Mycobacterium tuberculosis, UniProt P9WHJ3); experiment: Fluorescence Cell-Free Homogeneous Dose Retest to Identify Inhibitors of RecA-Intein Splicing Activity. [Related pubchem assays (depositor defined):AID2097, AID2223, AID489010, AID492950]; assay type: functional
T2 sequence (P9WHJ3 whole entry): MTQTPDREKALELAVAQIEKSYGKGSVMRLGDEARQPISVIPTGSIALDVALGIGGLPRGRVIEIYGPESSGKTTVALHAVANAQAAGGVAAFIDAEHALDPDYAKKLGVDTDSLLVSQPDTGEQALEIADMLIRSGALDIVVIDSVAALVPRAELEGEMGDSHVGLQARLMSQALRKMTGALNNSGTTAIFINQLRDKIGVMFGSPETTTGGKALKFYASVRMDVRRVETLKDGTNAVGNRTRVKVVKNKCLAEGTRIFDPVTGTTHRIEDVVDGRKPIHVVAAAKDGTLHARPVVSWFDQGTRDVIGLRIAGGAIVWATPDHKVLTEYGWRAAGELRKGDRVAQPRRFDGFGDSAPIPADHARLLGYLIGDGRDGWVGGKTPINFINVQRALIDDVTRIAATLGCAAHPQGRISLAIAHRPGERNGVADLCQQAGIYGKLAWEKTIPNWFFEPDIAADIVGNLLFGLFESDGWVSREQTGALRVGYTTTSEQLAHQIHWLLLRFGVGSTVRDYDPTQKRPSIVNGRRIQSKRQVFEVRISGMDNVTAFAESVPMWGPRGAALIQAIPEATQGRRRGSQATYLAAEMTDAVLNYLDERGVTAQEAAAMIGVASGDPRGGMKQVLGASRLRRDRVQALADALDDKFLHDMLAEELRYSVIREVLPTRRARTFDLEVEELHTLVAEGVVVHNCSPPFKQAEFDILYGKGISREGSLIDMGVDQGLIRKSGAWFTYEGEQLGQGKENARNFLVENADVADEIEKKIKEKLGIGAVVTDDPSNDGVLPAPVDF

[4] = biological target: Cytochrome P450 2C19 (Homo sapiens, UniProt P33261); experiment: Cytochrome panel assay with activity outcomes. Panel member name: p450-cyp2c19 Compounds with AC50 equal or less than 10 uM are considered active; assay type: functional
Chain of Cytochrome P450 2C19 (P33261 whole entry): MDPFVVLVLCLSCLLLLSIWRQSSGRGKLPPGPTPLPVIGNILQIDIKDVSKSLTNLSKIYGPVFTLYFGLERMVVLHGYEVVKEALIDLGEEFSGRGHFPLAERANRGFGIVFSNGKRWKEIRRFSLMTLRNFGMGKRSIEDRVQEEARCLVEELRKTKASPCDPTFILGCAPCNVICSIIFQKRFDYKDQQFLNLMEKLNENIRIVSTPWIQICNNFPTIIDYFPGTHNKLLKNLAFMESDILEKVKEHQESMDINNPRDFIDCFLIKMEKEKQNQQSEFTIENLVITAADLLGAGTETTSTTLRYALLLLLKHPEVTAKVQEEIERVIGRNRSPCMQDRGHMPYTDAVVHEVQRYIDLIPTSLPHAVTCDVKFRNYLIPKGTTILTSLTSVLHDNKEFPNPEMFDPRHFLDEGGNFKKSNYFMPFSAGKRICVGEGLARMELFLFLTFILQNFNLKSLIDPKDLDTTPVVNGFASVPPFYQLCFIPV

[5] = biological target: Cytochrome P450 2D6 (Homo sapiens, UniProt P10635);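 note: CYP2D6 member of a cytochrome P450 panel assay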
Chain of Cytochrome P450 2D6 (P10635 whole entry): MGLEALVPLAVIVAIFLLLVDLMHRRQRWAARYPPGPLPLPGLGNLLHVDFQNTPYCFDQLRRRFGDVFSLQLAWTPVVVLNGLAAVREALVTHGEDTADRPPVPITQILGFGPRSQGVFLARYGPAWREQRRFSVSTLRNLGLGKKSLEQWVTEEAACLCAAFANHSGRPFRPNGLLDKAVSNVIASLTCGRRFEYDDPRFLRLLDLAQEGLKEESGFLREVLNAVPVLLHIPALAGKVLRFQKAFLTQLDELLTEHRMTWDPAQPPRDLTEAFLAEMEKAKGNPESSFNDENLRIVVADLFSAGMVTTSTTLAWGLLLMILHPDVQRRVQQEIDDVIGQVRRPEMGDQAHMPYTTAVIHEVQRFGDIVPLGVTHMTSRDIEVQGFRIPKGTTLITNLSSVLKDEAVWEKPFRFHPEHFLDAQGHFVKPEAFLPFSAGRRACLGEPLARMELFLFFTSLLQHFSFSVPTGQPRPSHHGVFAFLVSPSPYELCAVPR

[6] = biological target: T3, Cytochrome P450 1A2 (Homo sapiens, UniProt P05177);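 note: PubChem cytochrome P450 panel assay, CYP1A2 panel member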
T3 sequence (P05177 whole entry): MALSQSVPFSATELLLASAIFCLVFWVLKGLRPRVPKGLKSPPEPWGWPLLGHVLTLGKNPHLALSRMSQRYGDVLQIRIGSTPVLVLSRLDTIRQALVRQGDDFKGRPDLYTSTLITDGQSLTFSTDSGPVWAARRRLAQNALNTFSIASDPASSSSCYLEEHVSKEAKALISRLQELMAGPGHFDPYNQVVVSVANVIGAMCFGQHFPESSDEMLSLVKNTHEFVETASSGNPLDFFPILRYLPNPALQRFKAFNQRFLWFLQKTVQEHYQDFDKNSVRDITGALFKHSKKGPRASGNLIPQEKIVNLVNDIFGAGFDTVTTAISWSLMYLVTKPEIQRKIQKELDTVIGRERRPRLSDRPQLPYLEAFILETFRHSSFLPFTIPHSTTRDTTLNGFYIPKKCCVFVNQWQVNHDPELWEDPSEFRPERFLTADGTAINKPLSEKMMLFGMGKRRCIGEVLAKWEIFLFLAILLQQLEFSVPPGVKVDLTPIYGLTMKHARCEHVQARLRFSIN

[7] = biological target: Cytochrome P450 2C9 (Homo sapiens, UniProt P11712)
Chain of Cytochrome P450 2C9 (P11712 whole entry): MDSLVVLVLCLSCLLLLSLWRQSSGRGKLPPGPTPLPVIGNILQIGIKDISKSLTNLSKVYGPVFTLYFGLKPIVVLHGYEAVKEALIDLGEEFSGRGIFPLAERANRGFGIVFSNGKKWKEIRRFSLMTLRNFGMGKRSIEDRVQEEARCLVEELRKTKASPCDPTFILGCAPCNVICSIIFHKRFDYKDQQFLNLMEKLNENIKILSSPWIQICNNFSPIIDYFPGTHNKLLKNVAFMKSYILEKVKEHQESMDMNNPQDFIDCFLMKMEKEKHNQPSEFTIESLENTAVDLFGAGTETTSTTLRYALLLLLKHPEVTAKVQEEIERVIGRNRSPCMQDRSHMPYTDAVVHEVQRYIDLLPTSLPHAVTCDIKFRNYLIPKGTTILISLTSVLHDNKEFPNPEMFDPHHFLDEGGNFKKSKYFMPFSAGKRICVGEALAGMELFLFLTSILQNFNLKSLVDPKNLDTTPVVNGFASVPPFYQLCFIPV

[8] = biological target: Cytochrome P450 3A4 (Homo sapiens, UniProt P08684);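 note: CYP3A4 tested as one member of a cytochrome P450 panel screen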
Chain of Cytochrome P450 3A4 (P08684 whole entry): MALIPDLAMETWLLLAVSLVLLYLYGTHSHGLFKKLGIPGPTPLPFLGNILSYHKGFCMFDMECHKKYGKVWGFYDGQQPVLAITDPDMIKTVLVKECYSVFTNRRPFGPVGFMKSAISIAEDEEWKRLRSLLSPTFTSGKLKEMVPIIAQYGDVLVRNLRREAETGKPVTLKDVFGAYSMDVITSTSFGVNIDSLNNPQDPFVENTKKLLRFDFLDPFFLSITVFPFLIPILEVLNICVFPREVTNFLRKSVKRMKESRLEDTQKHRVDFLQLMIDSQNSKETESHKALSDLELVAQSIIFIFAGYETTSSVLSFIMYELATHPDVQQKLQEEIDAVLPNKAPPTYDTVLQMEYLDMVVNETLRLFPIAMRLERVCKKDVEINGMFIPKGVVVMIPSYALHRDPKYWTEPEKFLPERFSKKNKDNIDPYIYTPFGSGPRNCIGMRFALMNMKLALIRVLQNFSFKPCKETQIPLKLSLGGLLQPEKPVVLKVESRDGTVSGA

[9] = system: INS1; experiment: INS-1E survival protection against cytokine death – cell-based, luminescence, retest, dose response (AID 449756); assay type: functional; settings: Rattus norvegicus;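 note: cell death triggered by IL-1 beta plus TNF-alpha plus IFN-gamma mixture; protective hits raise ATP signal compared with cytokine alone wells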
[10] = biological target: Luciferin 4-monooxygenase (Photinus pyralis, UniProt P08659); experiment: inhibition of purified Photinus pyralis luciferase – biochemical, luminescence, dose response (AID 1891)
Chain of Luciferin 4-monooxygenase (P08659 whole entry): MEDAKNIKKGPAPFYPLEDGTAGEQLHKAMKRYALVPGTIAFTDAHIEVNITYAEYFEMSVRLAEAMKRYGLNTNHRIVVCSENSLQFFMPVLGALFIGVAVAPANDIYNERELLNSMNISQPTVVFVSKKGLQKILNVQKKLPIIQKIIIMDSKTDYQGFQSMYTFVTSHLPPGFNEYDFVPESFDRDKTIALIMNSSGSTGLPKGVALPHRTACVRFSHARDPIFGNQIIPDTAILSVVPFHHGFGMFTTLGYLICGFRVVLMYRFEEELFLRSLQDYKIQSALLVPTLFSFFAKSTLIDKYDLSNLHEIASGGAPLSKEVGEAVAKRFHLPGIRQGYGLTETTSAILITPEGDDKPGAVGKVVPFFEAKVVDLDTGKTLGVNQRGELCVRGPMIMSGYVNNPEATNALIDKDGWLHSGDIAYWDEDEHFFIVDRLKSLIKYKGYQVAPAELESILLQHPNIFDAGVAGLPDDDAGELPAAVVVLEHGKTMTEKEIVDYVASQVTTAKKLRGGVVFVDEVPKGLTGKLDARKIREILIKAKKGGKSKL

[11] = Luminescence Cell-Based Dose Confirmation HTS to Identify Inhibitors of Platelet Dense Granule Release. [Related pubchem assays: 1663 (Primary HTS), 1678 (Summary of Project)]; assay type: functional
[12] = Trypanosoma cruzi growth suppression in host cells – NIH3T3 host cells, beta-gal luminescence, confirmation (AID 2044); assay type: functional, cell-based;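 note: intracellular parasites grown in NIH/3T3 mouse fibroblasts as host cells; luminescent beta-galactosidase reporter signal from transgenic T. cruzi replicating inside host cells; inhibitors lower the luminescence signal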
[13] = NIH3T3 cell viability loss – ATP luminescence, mouse fibroblasts, counter-screen, dose response (AID 2010); assay type: functional, cell-based;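 note: cells exposed to compound for about 90 hours before reading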

For `O=C(c1cccc(S(=O)(=O)N2CCc3ccccc3C2)c1)N1CCN(c2ccc(O)cc2)CC1`, the AC50 [1] was 4.51 µM (active).

With `O=C(Cc1cc(O)n[nH]1)N/N=C/c1c(F)cccc1Cl` the AC50 [2] was 1.87 µM (active) and the EC50 [3] was 1.53 µM (active).

With `Cc1ccc(Cn2nnc3c(O)nc(C4CCCN(C(=O)Nc5ccc(F)cc5F)C4)nc32)cc1` (stereo unspecified) the AC50 ([4]; read-out: AC50) was 39.8 µM (inconclusive), the AC50 [5] was 25.1 µM (inconclusive) and the AC50 [6] was 31.6 µM (inconclusive). For the same compound, the AC50 [7] was 22.4 µM (inconclusive).

With `O=C(c1ccccc1F)c1cn(CC(=O)N2CCOCC2)c2ccccc12` the AC50 [8] was 17.8 µM (inconclusive).

For `O=C(c1ccc(F)c(S(=O)(=O)N2CCOCC2)c1)N1CCN(c2ccc(F)cc2)CC1`, the AC50 [9] was > 260 µM (inactive).

In the case of `COc1cccc(-c2sc3ccccc3c2-c2ccc(OCCN3CCOCC3)cc2)c1`, the AC50 [1] is reported as 2.32 µM (active).

For `CCC(=NNC(=O)c1ccc2c(c1)nc(C)n2CC)c1cc(F)ccc1O`, the AC50 [9] was 2.32 µM (active).

For `CC(=O)Nc1ccccc1NC(=O)C/C(C)=N/NC(=O)C(=O)N1CCCCC1`, the AC50 [2] was 5.84 µM (active) and the EC50 [3] was 0.891 µM (active).

With `O=C(Nc1ccc(F)cc1F)N1CCCN(CCOc2ccccc2)CC1` the AC50 [9] was 13.3 µM (active).

In the case of `Cn1c(=O)c2c(nc(N3CCN(c4ccccn4)CC3)n2Cc2ccc(Cl)cc2Cl)n(C)c1=O`, the AC50 [8] is reported as 2.24 µM (inconclusive).

In the case of `O=C(Nc1cccc(Cl)c1)Nn1cnnc1`, the AC50 [6] is reported as 3.16 µM (inconclusive) and the AC50 [8] is reported as 3.16 µM (inconclusive).

In the case of `N#CC1=C(N)Oc2[nH]nc(-c3ccncc3)c2C1c1ccsc1` (stereo unspecified), the AC50 [2] is reported as 13.4 µM (active) and the EC50 [3] is reported as 3.27 µM (active).

In the case of `Cc1ccc(S(=O)(=O)Nc2ccc3c(c2)CC(=O)N([C@H](C)CO)C[C@@H](C)[C@H](CN(C)Cc2ccc(-c4ccccc4)cc2)O3)cc1`, the AC50 [1] is reported as 3.9 µM (active).

In the case of `N=C(N)N/N=C(/c1ccccc1)c1ccc(O)cc1O`, the AC50 [8] is reported as 3.98 µM (inconclusive).

In the case of `Cc1ccccc1C(=N)c1ccccc1Cc1cccc2ccccc12`, the AC50 [8] is reported as 1.58 µM (inconclusive).

In the case of `Cc1ccc(-c2nc(C[S+]([O-])CC(=O)NCc3ccc4c(c3)OCO4)c(C)o2)cc1` (stereo unspecified), the AC50 [1] is reported as > 195 µM (inactive).

With `Cc1cccc(N(C)C(=O)c2cc3c(O)nc4ccc(C)cc4c3s2)c1` the EC50 [10] was > 112 µM (not active), the EC50 [11] was 70.7 µM (active) and the AC50 [1] was 0.394 µM (active).

For `C=CCOc1ccc2cccc(/C=N/NC(=O)c3cc4cc([N+](=O)[O-])ccc4s3)c2c1`, the AC50 ([4]; read-out: AC50) was 0.398 µM (inconclusive) and the AC50 [8] was 2.51 µM (inconclusive).

In the case of `CN(N=O)c1cc(O)ccc1O` [DEPHOSTATIN], the AC50 ([4]; read-out: AC50) is reported as 25.1 µM (inconclusive), the AC50 [5] is reported as 31.6 µM (inconclusive) and the AC50 [6] is reported as 31.6 µM (inconclusive). The AC50 [7] was 10 µM (inconclusive).

For `S=C1N(c2ccccc2)C(c2ccc(Cl)cc2)N2CCCN12` (stereo unspecified), the AC50 [8] was 12.6 µM (inconclusive) and the AC50 [7] was 10 µM (inconclusive).

In the case of `Cc1cc(C)cc(C(=O)Nc2nnc(SCC(=O)N3CCCc4ccccc43)s2)c1`, the AC50 [1] is reported as 4.46 µM (active).

With `CCN(Cc1cc(Cl)cc(C)c1O)Cc1c(O)ccc2ccccc12` the AC50 [6] was 1 µM (inconclusive) and the AC50 [7] was 5.01 µM (inconclusive).

For `Cc1cc(C)nc(N/N=C2/CCCC/C2=C\c2ccccc2)n1`, the AC50 [9] was 0.397 µM (active).

For `N#CC1=C(N)Oc2[nH]nc(-c3cccs3)c2C1c1ccccc1C(=O)O` (stereo unspecified), the AC50 [2] was 2.69 µM (active) and the EC50 [3] was 1.56 µM (active).

With `C/C(=N\N1C(=O)c2ccccc2NC1c1ccco1)c1ccccc1O` (stereo unspecified) the EC50 [12] was 1.66 µM (active), the EC50 [13] was 4.99 µM (active) and the AC50 [9] was 2.21 µM (active).

With `COc1cccc(/C=N\NC(=O)C2C(=O)NCC2c2ccccc2)c1O` (stereo unspecified) the AC50 ([4]; read-out: AC50) was 39.8 µM (inconclusive), the AC50 [6] was 17.8 µM (inconclusive) and the AC50 [8] was 25.1 µM (inconclusive).

With `CC(C)=C1C(=O)C(c2ccccc2)=C2CN3C(=O)N(CCc4ccccc4)C(=O)[C@]3(Cc3ccccc3)[C@H]21` the AC50 ([4]; read-out: AC50) was 25.1 µM (inconclusive) and the AC50 [8] was 5.01 µM (inconclusive).

In the case of `CC(OC(=O)c1cccs1)C(=O)NC1CCCCC1C` (stereo unspecified), the AC50 [1] is reported as > 195 µM (inactive).

For `O=C(O)c1cc2cc(Cl)ccc2oc1=O`, the AC50 [6] was 0.0251 µM (inconclusive) and the AC50 [7] was 0.00562 µM (inconclusive).

With `CCN(CC)CCNC(=O)COc1ccc(OC)cc1` [MEFEXAMIDE] the AC50 [5] was 12.6 µM (inconclusive) and the AC50 [6] was 12.6 µM (inconclusive).

For `COc1ccc(C(=O)Nc2ccc(O)c3ccccc23)cc1OC`, the AC50 [2] was 82 µM (active) and the EC50 [3] was 8.4 µM (active).

In the case of `O=C(c1coc2ccccc2c1=O)N1CCN(c2cccc(C(F)(F)F)c2)CC1`, the AC50 [8] is reported as 22.4 µM (inconclusive).

For `CC1(C)CC(=O)C2=C(C1)N(Cc1ccccc1)C(=O)C2(O)C(F)(F)F` (stereo unspecified), the EC50 [10] was > 112 µM (not active), the EC50 [11] was > 112 µM (not active) and the AC50 [8] was 20 µM (inconclusive).

With `COc1ccccc1CN1CC2(CCN(C(=O)c3ccncc3)CC2)C1` the AC50 [8] was 7.94 µM (inconclusive).

For `COc1cc2c(cc1OC)CN(CC(=O)Nc1ccc3c(c1)OCO3)CC2`, the AC50 ([4]; read-out: AC50) was 22.4 µM (inconclusive), the AC50 [6] was 20 µM (inconclusive) and the AC50 [7] was 14.1 µM (inconclusive).

In the case of `COc1ncc2nc(-c3cc(F)cc(F)c3)c(=O)n(C3CC3)c2n1`, the AC50 [8] is reported as 12.6 µM (inconclusive) and the AC50 [7] is reported as 31.6 µM (inconclusive).

For `Cc1ccc(C(=O)Oc2ccc([N+](=O)[O-])cc2)cc1S(=O)(=O)N1CCCCCC1`, the AC50 [2] was 3.4 µM (active) and the EC50 [3] was 4.99 µM (active).

With `COc1cc2c(cc1OC)C(CCN)=NCC2` the AC50 [4] was “inconclusive”, the AC50 [5] was 1.58 µM (inconclusive) and the AC50 [6] was 5.01 µM (inconclusive). The AC50 [8] was 3.98 µM (inconclusive).

Source: ChEMBL document CHEMBL1201862, “PubChem BioAssay data set” (2004)
